Results on five compounds are retold here after patent publication US10137081B2, “Device and method for sustained release of antipsychotic medications” (DELPOR, INC., priority 2012, dated 2018).

The conditions of series [1]: for period of constant, zero-order in vitro release of risperidone: FIGS. 4, 5.
Method: Singly capped devices were weighed and tared on a conventional laboratory balance. The open end of each device was fitted with a small funnel, and each salt form of drug to be tested was loaded into the reservoir in small (about 10-about 50 mg) portions. When necessary, each added portion of solid was tamped down to the base of the reservoir prior to the next addition. This process was repeated until a specific loading target was met (generally about 250-500 mg). The filled reservoir was then capped with either a closed PEEK cap or a cap configuration identical to that used on the first end of the device, vide supra.
The assembled devices were weighed and then loaded into a custom-built vacuum hydrator. The air space within each device was evacuated by placing the device in a vacuum (<0.5 torr) for no less than 30 min. The devices were then back-filled with phosphate-buffered saline (pH 7.4) applied with a back pressure of 5-10 psi above atmospheric pressure for at least one hour. The devices were then retrieved from the hydration apparatus, wiped with a tissue to absorb any external fluid, weighed, and transferred to petri dishes containing buffer for the drug output assay, vide infra. The success of the hydration step was determined by the measuring the increase in mass before and after hydration.
The dish was placed in an incubator with pCO2 adjusted to give an average buffer pH of 7.4. Approximately once per day, the dishes were retrieved from the incubator. Each device was transferred to a new dish containing an equivalent amount of buffer and then returned to the incubator.
The retained receiving buffer samples were acidified with 3.0 mL of 0.1 M HCl and allowed to stand for approximately 1 hour. An aliquot of each sample (generally 100 μL) was transferred to a single well of a UV-transparent 96 well plate along with 100 μL of 0.1 M HCl diluent. After plating, the absorbance of each well was recorded at 270 nm using a Molecular Devices spectrophotometer. The absorbances were converted into concentrations (and ultimately output mass per day) by comparison to a standard curve. Samples that absorbed outside of the linear range of the instrument were diluted and re-read, as appropriate.
For series [2] the following is noted: general statement in the description; cited from earlier work.
Series [3] in a line: In vivo pharmacokinetics, device as subcutaneous implant in rats. On the procedure: Six male Sprague Dawley rats (Charles River; Hollister, Calif.) of an initial weight of approximately 250-280 grams were administered a device as a subcutaneous implant. This study complied with all applicable sections of the Final Rules of the Animal Welfare Act regulations (9 CFR), the Public Health Service Policy on Humane Care and Use of Laboratory Animals, the Guide for the Care and Use of Laboratory Animals. […] All animals were weighed and the hair was clipped and removed from the dorsal area prior to dose administration. All animals were anesthetized with isoflurane via an induction chamber and maintained in the appropriate plane of anesthesia using isoflurane inhalant (1-3%) and a vaporizer. The dorsal area of the animal was prepared for implantation using appropriate surgical scrub and ethanol. Aseptic technique was used during implantation. A small incision was made in the skin and a single device implant gently placed in the dorsal subcutaneum using a sterile implanter tool. Following administration, the skin incision was closed with sterile suture. The animals were given an appropriate dose of analgesia (see table below) and allowed to recover.
The animals were euthanized following the blood collection.
Body weights were measured on the day of test article administration and weekly thereafter.
Blood volumes of approximately 0.8 to 1.0 mL were collected at each time point, placed into Vacutainer tubes containing EDTA, and kept on wet ice until processing. For preparation of plasma, tubes were mixed by gentle inversion several times and centrifuged under refrigeration (approximately 2-8° C.) for approximately 15 minutes at approximately 2800 rpm (˜1000×g). Plasma was split into two approximately equal aliquots and transferred to labeled screw-top tubes for storage, and stored at approximately (−60° C. to −80° C.) until shipment to the analytical lab.
Using aseptic technique, the implant site was opened up and a photo of the implant field was taken. Blood draws were made four hours and 24 hours after implant removal. Any observations were recorded.
Bioanalytical measurements of active moiety (risperidone+9-OH risperidone) were conducted by Integrated Analytical Solutions (Berkeley, Calif.) using an LCMS method validated to resolve risperidone and 9-OH risperidone in rat plasma with a lower limit of quantitation (LLQ) of 0.5 ng/mL for each analyte.
Plasma concentrations were normalized to initial body weight for each time point and plotted versus time.

Setting [4] is: subcutaneous implant, FIGS. 7, 8.

Regarding `Cc1nc2n(c(=O)c1CCN1CCC(c3noc4cc(F)ccc34)CC1)CCCC2.O=C(O)c1ccccc1` [risperidone benzoate, reference compound], in series [1] (FIG. 2, upper limit 2.5 mg/day), the “in vitro output pattern relative to the therapeutic window” value is recorded as “rises to high levels before falling”.

Turning to `Cc1nc2n(c(=O)c1CCN1CCC(c3noc4cc(F)ccc34)CC1)CCCC2` [risperidone free base, risperidone, reference compound], in series [2], the “solubility in water” value is given as “extremely insoluble in water”.

Take `CCCCC(=O)O.Cc1nc2n(c(=O)c1CCN1CCC(c3noc4cc(F)ccc34)CC1)CCCC2` [risperidone pentanoate]: the “period of constant plasma level of active moiety” value in series [3] (setting [4]) is “greater than 60 days”. Moreover, the “initial period in which in vitro output is slightly above the therapeutic window” value in series [1] (FIG. 4, upper limit 2.5 mg/day) amounted to 2 weeks. Also, the “period of constant, zero-order in vitro release of risperidone” value in series [1] is “at least 60 days”.

In the case of dodecanoate, in series [2], the “solubility in water” value was “not appreciably more soluble than the free base form”.

Consider risperidone hexanoate, for which, in series [3] (after 118 days of subcutaneous implantation), the “examination of the implant site” value was “no evidence of inflammation or other adverse tissue responses”. Besides, in series [3] (below LLQ, 4 h and 24 h after implant removal at day 118), the “plasma level of active moiety following removal of the device” value is reported as less than 0.5 ng/mL. Besides, the “plasma level of active moiety (risperidone plus 9-OH risperidone)” value in series [3] (subcutaneous implant, 290-300 mg salt per device, normalized to initial body weight, constant level after 4 hour burst) was “about 20 ng/mL”. The “period of constant plasma level of active moiety” value in series [3] (setting [4]) is on record as 118 days; in series [3] (subcutaneous implant, until device removal, FIG. 7), “about 4 months”. In addition, in series [1] (Example 6, devices 172, 180, 360 and 364, followed for 90-100 days, FIG. 5), the “period of in vitro release of risperidone within the therapeutic range” value is not below 90 days. The “period of in vitro release at a constant rate within the therapeutic range” value in series [1] (Example 7, followed for 6 months, FIG. 6) amounted to 6 months. Also, the “period of constant, zero-order in vitro release of risperidone” value in series [1] lay within 30 to 90 days.
